How the values were obtained:
SkM:NRVM co-cultures = experiment: Pharmacological intervention for induced reentrant arrhythmias, optical mapping of mixed co-cultures; assay type: cell-based; conditions: n=12
Protocol: Human skeletal myoblasts were obtained from Cambrex (Walkersville, Md.) and grown in myoblast basal growth medium (SkBM, Clonetics) containing 10% fetal bovine serum, recombinant human epidermal factor (10 ng/ml), dexamethasone (3 μg/ml), L-glutamine, Gentamicin and Amphotericin-B, at 37° C. and 5% CO2. (Vials obtained from Cambrex contained 70-80% myoblasts, and the remainder were fibroblasts). The cells were seeded at 3,500 cells/cm^2 and maintained at cell densities of 60-70% to prevent myotube formation during the culture process. Cells were transduced with lentivirus on their second passage and frozen at −80° C. or amplified up to 10 population doublings. For co-cultures, myoblasts were dissociated using trypsin, counted and then used.
Cells were re-suspended in M199 culture medium (Life Technologies, Rockville, Md.), supplemented with 10% heat-inactivated fetal bovine serum (Life Technologies), differentially pre-plated in two 45 minute steps, and then counted using a hemocytometer. For control experiments, 10^6 cells were plated on 22 mm plastic coverslips coated with fibronectin (25 μg/ml). On day 2 after cell plating, serum was reduced to 2%.
Myoblasts and NRVMs were co-cultured (isotropic) on 22 mm plastic cover slips (coated with fibronectin, 25 μg/ml) for 9-11 days and then used for optical mapping. In an initial set of experiments, 0.5×10^6 NRVMs were plated over half of the cover slip, with the other half covered by a PDMS stamp coated with fibronectin (50 μg/ml). The PDMS stamp was removed 24 hours later and 0.5×10^6 myoblasts transduced with Lv-GFP were then plated. […] In a second set of experiments, the myoblasts (transduced with LvGFP) and NRVMs were plated at the same time in varying ratios: 1:1, 1:4 and 1:9 to study the electrophysiologic consequences of mixing the two cell types.
(§1) Coverslips were visually inspected under a microscope. Monolayers with obvious gaps in confluency and non-beating cultures were rejected. The coverslips were placed in a custom-designed chamber, stained with 5 μM di-4-ANEPPS (Molecular Probes; Eugene, Oreg.) for 5 min and continuously superfused with warm (36.5° C.) oxygenated Tyrode solution consisting of (in mM) 135 NaCl, 5.4 KCl, 1.8 CaCl2, 1 MgCl2, 0.33 NaH2PO4, 5 HEPES, and 5 Glucose. A unipolar point or area electrode (4 bipolar line electrodes) was used to stimulate the cells in culture. Action potentials were recorded from 253 sites using a modified custom-built contact fluorescence imaging system.^15 The recording chamber was placed directly above a fiber bundle with fibers arranged in a 17 mm-diameter hexagonal array. A light emitting diode (LED) light source with an interference filter (530+/−25 mm) delivered excitation light to the chamber. […]

L-type calcium channel = experiment: Nitrendipine dose response curve: APD and conduction velocity by optical mapping; assay type: cell-based; conditions: nitrendipine 5 μM
Protocol: as §1
Baseline drift was reduced by subtraction of a fitted polynomial curve from the optical signal. […] To compare velocities among different episodes in the same monolayer, conduction velocity was calculated along the same path and averaged over different stimulus responses. […] Data are expressed as Mean +/−SEM unless stated otherwise. Differences between means were assessed using the Student's t test or Fischer's exact test.

Compound	termination of reentry (SkM:NRVM co-cultures; lidocaine 200 μM superfused, co-cultures)	slowed the reentry rate (SkM:NRVM co-cultures; lidocaine 200 μM superfused, induced reentry in co-cultures)	shortened APD (L-type calcium channel)	slowed the reentrant rhythms (SkM:NRVM co-cultures; nitrendipine 5 μM superfused, before termination)	time to abrupt termination of reentry (SkM:NRVM co-cultures; nitrendipine 5 μM, in all co-cultures)
CCN(CC)CC(=O)Nc1c(C)cccc1C [lidocaine]	did not terminate it in the majority of co-cultures	70-80%	–	–	–
CCOC(=O)C1=C(C)NC(C)=C(C(=O)OC)C1c1cccc([N+](=O)[O-])c1 (centres unmarked) [nitrendipine]	–	–	50%	10-20%	≤ 5 min
